From patent US20100129434A1, “COMPOSITIONS AND METHODS FOR THE TREATMENT OF MUCORMYCOSIS AND OTHER FUNGAL DISEASES” (priority 2006, published 2010)
Values after ≈ are worked out from the molar mass of the structure shown. Like-named read-outs stand apart in the source and are kept apart here.

Assays:
[1] = steady state; FDA-approved starting dose 20 mg/kg/d; cited from earlier work
[2] = test system: R. oryzae; assay: Deferasirox susceptibility testing (MIC/MFC), R. oryzae isolates; type: cell-based, Rhizopus oryzae; settings: for MFC / MIC: Rhizopus arrhizus; for MFC: read-out: MFC; for MIC: read-out: MIC
Description: Minimum inhibitory concentration (MIC) and minimum fungicidal concentration (MFC) were determined for deferasirox by the method of Espinel-Ingroff using R. oryzae spores starved for iron (Espinel-Ingroff, (2001), supra). Cidality was defined as a <4-fold difference between MIC and MFC.
We next determined the deferasirox susceptibilities of multiple clinical isolates of Mucorales (Table 3). The MIC9OS of deferasirox against Mucor, non-oryzae Rhizopus spp., and R. oryzae were 3.12 to 6.25 μg/ml. MFCs were similar to MICs, and deferasirox was cidal for 28/29 (97%) of isolates. Of note, slight growth was seen within the first twelve hours even at extremely high concentrations of deferasirox. […] Furthermore, the MICs and MFCs of deferasirox against these isolates were well below clinically achievable peak (˜38 μg/ml) and trough serum levels (˜17 μg/ml) of the drug at steady state when administered at the FDA-approved starting dose (20 mg/kg/d).

[3] = 24 h, R. oryzae pyr17 pyrG−/−, 24 h
[4] = 24 h, R. orzae type II 10206, 24 h

SMILES: O=C(O)c1ccc(-n2nc(-c3ccccc3O)nc2-c2ccccc2O)cc1 [Deferasirox, 4-[3,5-Bis(2-hydroxyphenyl)-1H-1,2,4-triazol-1-yl]-benzoic acid]
- clinically achievable peak serum level [1]: ~38 µg/mL
- clinically achievable trough serum level [1]: ~17 µg/mL
- Fungicidal? ([2]; R. oryzae 99-133, 24 h): Y (Cidal = MFC/MIC ≦ 4)
- Fungicidal? ([2]; R. oryzae 99-133, 48 h): Y (Cidal = MFC/MIC ≦ 4)
- Fungicidal? ([2]; R. oryzae 99-880, 24 h): Y (Cidal = MFC/MIC ≦ 4)
- Fungicidal? ([2]; R. oryzae 99-880, 48 h): Y (Cidal = MFC/MIC ≦ 4)
- Fungicidal? ([2]; R. oryzae 99-892, 24 h): Y (Cidal = MFC/MIC ≦ 4)
- Fungicidal? ([2]; R. oryzae 99-892, 48 h): Y (Cidal = MFC/MIC ≦ 4)
- Fungicidal? ([2]; R. oryzae 729-02, 24 h): Y (Cidal = MFC/MIC ≦ 4)
- Fungicidal? ([2]; R. oryzae 729-02, 48 h): Y (Cidal = MFC/MIC ≦ 4)
- Fungicidal? ([2]; R. oryzae HUMC 02, 24 h): Y (Cidal = MFC/MIC ≦ 4)
- Fungicidal? ([2]; R. oryzae HUMC 02, 48 h): Y (Cidal = MFC/MIC ≦ 4)
- Fungicidal? ([2]; R. oryzae MIC90/MFC90, 24 h): Y (Cidal = MFC/MIC ≦ 4)
- MFC90 ([2]; R. oryzae MIC90/MFC90, 24 h): 12.5 µg/mL (≈ 33.5 µM)
- Fungicidal? ([2]; R. oryzae MIC90/MFC90, 48 h): Y (Cidal = MFC/MIC ≦ 4)
- MFC90 ([2]; R. oryzae MIC90/MFC90, 48 h): 6.25 µg/mL (≈ 16.7 µM)
- Fungicidal? ([2]; R. oryzae pyr17 pyrG−/−, 24 h): Y (Cidal = MFC/MIC ≦ 4)
- Fungicidal? ([2]; R. oryzae pyr17 pyrG−/−, 48 h): Y (Cidal = MFC/MIC ≦ 4)
- Fungicidal? ([2]; R. oryzae type 1 NRRL13440, 24 h): N (Cidal = MFC/MIC ≦ 4)
- Fungicidal? ([2]; R. oryzae type 1 NRRL13440, 48 h): N (Cidal = MFC/MIC ≦ 4)
- Fungicidal? ([2]; R. oryzae type I NRRL 6059, 24 h): Y (Cidal = MFC/MIC ≦ 4)
- Fungicidal? ([2]; R. oryzae type I NRRL 6059, 48 h): Y (Cidal = MFC/MIC ≦ 4)
- Fungicidal? ([2]; R. oryzae type I NRRL 10206, 24 h): Y (Cidal = MFC/MIC ≦ 4)
- Fungicidal? ([2]; R. oryzae type I NRRL 10206, 48 h): Y (Cidal = MFC/MIC ≦ 4)
- Fungicidal? ([2]; R. oryzae type I NRRL11823, 24 h): Y (Cidal = MFC/MIC ≦ 4)
- Fungicidal? ([2]; R. oryzae type I NRRL11823, 48 h): Y (Cidal = MFC/MIC ≦ 4)
- Fungicidal? ([2]; R. oryzae type I NRRL13142, 24 h): Y (Cidal = MFC/MIC ≦ 4)
- Fungicidal? ([2]; R. oryzae type I NRRL13142, 48 h): Y (Cidal = MFC/MIC ≦ 4)
- Fungicidal? ([2]; R. oryzae type I NRRL13533, 24 h): Y (Cidal = MFC/MIC ≦ 4)
- Fungicidal? ([2]; R. oryzae type I NRRL13533, 48 h): Y (Cidal = MFC/MIC ≦ 4)
- Fungicidal? ([2]; R. oryzae type I NRRL 21251, 24 h): Y (Cidal = MFC/MIC ≦ 4)
- Fungicidal? ([2]; R. oryzae type I NRRL 21251, 48 h): Y (Cidal = MFC/MIC ≦ 4)
- Fungicidal? ([2]; R. oryzae type I NRRL21396, 24 h): Y (Cidal = MFC/MIC ≦ 4)
- Fungicidal? ([2]; R. oryzae type I NRRL21396, 48 h): Y (Cidal = MFC/MIC ≦ 4)
- Fungicidal? ([2]; R. oryzae type I NRRL21409, 24 h): Y (Cidal = MFC/MIC ≦ 4)
- Fungicidal? ([2]; R. oryzae type I NRRL21409, 48 h): Y (Cidal = MFC/MIC ≦ 4)
- Fungicidal? ([2]; R. oryzae type II NRRL 18148, 24 h): Y (Cidal = MFC/MIC ≦ 4)
- Fungicidal? ([2]; R. oryzae type II NRRL 18148, 48 h): Y (Cidal = MFC/MIC ≦ 4)
- Fungicidal? ([2]; R. oryzae type II NRRL 21446, 24 h): Y (Cidal = MFC/MIC ≦ 4)
- Fungicidal? ([2]; R. oryzae type II NRRL 21446, 48 h): Y (Cidal = MFC/MIC ≦ 4)
- Fungicidal? ([2]; R. oryzae type II NRRL 21447, 24 h): Y (Cidal = MFC/MIC ≦ 4)
- Fungicidal? ([2]; R. oryzae type II NRRL 21447, 48 h): Y (Cidal = MFC/MIC ≦ 4)
- Fungicidal? ([2]; R. oryzae type II NRRL 21477, 24 h): Y (Cidal = MFC/MIC ≦ 4)
- Fungicidal? ([2]; R. oryzae type II NRRL 21477, 48 h): Y (Cidal = MFC/MIC ≦ 4)
- Fungicidal? ([2]; R. oryzae type II NRRL 21628, 24 h): Y (Cidal = MFC/MIC ≦ 4)
- Fungicidal? ([2]; R. oryzae type II NRRL 21628, 48 h): Y (Cidal = MFC/MIC ≦ 4)
- Fungicidal? ([2]; R. oryzae type II NRRL 21789, 24 h): Y (Cidal = MFC/MIC ≦ 4)
- Fungicidal? ([2]; R. oryzae type II NRRL 21789, 48 h): Y (Cidal = MFC/MIC ≦ 4)
- Fungicidal? ([2]; R. orzae type II 10206, 24 h): Y (Cidal = MFC/MIC ≦ 4)
- Fungicidal? ([2]; R. orzae type II 10206, 48 h): Y (Cidal = MFC/MIC ≦ 4)
- MFC ([2]; 24 h, R. oryzae 99-133, 24 h): 6.25 µg/mL (≈ 16.7 µM)
- MIC ([2]; 24 h, R. oryzae 99-133, 24 h): 6.25 µg/mL (≈ 16.7 µM)
- MFC ([2]; 24 h, R. oryzae 99-880, 24 h): 3.12 µg/mL (≈ 8.36 µM)
- MIC ([2]; 24 h, R. oryzae 99-880, 24 h): 3.12 µg/mL (≈ 8.36 µM)
- MFC ([2]; 24 h, R. oryzae 99-892, 24 h): 1.56 µg/mL (≈ 4.18 µM)
- MIC ([2]; 24 h, R. oryzae 99-892, 24 h): 1.56 µg/mL (≈ 4.18 µM)
- MFC ([2]; 24 h, R. oryzae 729-02, 24 h): 12.5 µg/mL (≈ 33.5 µM)
- MIC ([2]; 24 h, R. oryzae 729-02, 24 h): 12.5 µg/mL (≈ 33.5 µM)
- MFC ([2]; 24 h, R. oryzae HUMC 02, 24 h): 12.5 µg/mL (≈ 33.5 µM)
- MIC ([2]; 24 h, R. oryzae HUMC 02, 24 h): 12.5 µg/mL (≈ 33.5 µM)
- MFC [2, 3]: 0.78 µg/mL (≈ 2.09 µM)
- MIC [2, 3]: 0.78 µg/mL (≈ 2.09 µM)
- MFC [2, 4]: 3.12 µg/mL (≈ 8.36 µM)
- MIC [2, 4]: 3.12 µg/mL (≈ 8.36 µM)
- MFC ([2]; 48 h, R. oryzae 99-133, 48 h): 6.25 µg/mL (≈ 16.7 µM)
- MIC ([2]; 48 h, R. oryzae 99-133, 48 h): 1.56 µg/mL (≈ 4.18 µM)
- MFC ([2]; 48 h, R. oryzae 99-880, 48 h): 3.12 µg/mL (≈ 8.36 µM)
- MIC ([2]; 48 h, R. oryzae 99-880, 48 h): 3.12 µg/mL (≈ 8.36 µM)
- MFC ([2]; 48 h, R. oryzae 99-892, 48 h): 1.56 µg/mL (≈ 4.18 µM)
